Where “and” joins values, the source holds several entries; their conditions need not be identical. Identical values can stand only once. Where a SMILES comes first, the peptide text is derived from it. [ ]: non-standard residue; d: D form. Hyp = O=C(O)[C@@H]1C[C@@H](O)CN1
Legend:
IL-8 = experiment: Example 9 Luminex, LPS hPBMCs: IL-8; assay type: cell-based, human
Procedure: (§1) Treatment Human PBMCs were pretreated with YY-101, YDE-011 and YDE-043 or reference compound; Xiidra® at various concentration (ranging from 1 nM to 100 uM) for 2 h before stimulation. An equal volume of 0.5% DMSO was used as a vehicle control. Then, the cells were treated with LPS at 5 ug/ml. The supernatants from treated cells were harvested at 24 h and placed in a 96 well for Luminex cytokine & chemokine profiling using a Luminex 200 multiplex assay (Luminex; R&D system, USA).
(§2) The main study arm with triplicate wells per group in a 24-well plate: • 1. Blank • 2. PBMC: 0.5% DMSO • 3. PBMC+LPS (5 ug/ml) • 4. PBMC+YY-101 100 uM • 5. PBMC+YY-101 10 uM • 6. PBMC+YY-101 1 uM • 7. PBMC+YY-101 0.1 uM • 8. PBMC+YY-101 0.01 uM • 9. PBMC+LPS (5 ug/ml)+Xiidra®100 uM • 10. PBMC+LPS (5 ug/ml)+Xiidra® 10 uM • 11. PBMC+LPS (5 ug/ml)+Xiidra® 1 uM • 12. PBMC+LPS (5 ug/ml)+Xiidra®0.1 uM • 13. PBMC+LPS (5 ug/ml)+Xiidra®0.01 uM • 14. PBMC+LPS (5 ug/ml)+Xiidra®0.001 uM • 15. PBMC+LPS (5 ug/ml)+YY-101 100 uM • 16. PBMC+LPS (5 ug/ml)+YY-101 10 uM • 17. PBMC+LPS (5 ug/ml)+YY-101 1 uM • 18. PBMC+LPS (5 ug/ml)+YY-101 0.1 uM • 19. PBMC+LPS (5 ug/ml)+YY-101 0.01 uM • 20. PBMC+LPS (5 ug/ml)+YY-101 0.001 uM • 21. PBMC+LPS (5 ug/ml)+YDE-011 100 uM • 22. PBMC+LPS (5 ug/ml)+YDE-011 10 uM • 23. PBMC+LPS (5 ug/ml)+YDE-011 1 uM • 24. PBMC+LPS (5 ug/ml)+YDE-011 0.1 uM • 25. PBMC+LPS (5 ug/ml)+YDE-011 0.01 uM • 26. PBMC+LPS (5 ug/ml)+YDE-011 0.001 uM • 27. PBMC+LPS (5 ug/ml)+YDE-043 100 uM • 28. PBMC+LPS (5 ug/ml)+YDE-043 10 uM • 29. PBMC+LPS (5 ug/ml)+YDE-043 1 uM • 30. PBMC+LPS (5 ug/ml)+YDE-043 0.1 uM • 31. PBMC+LPS (5 ug/ml)+YDE-043 0.01 uM • 32. PBMC+LPS (5 ug/ml)+YDE-043 0.001 uM
(§3) Multiplex assay was used to measure 30 cytokines and chemokines. The 1:2, 1:10 and 1:200 diluted cell supernatant and serial dilution of the standard were dispensed into a 96 well plate at 50 ul/well. Then, the pre-mixed cocktail of antibody-coated magnetic beads was dispensed at 50 ul/well and incubated at room temperature for 2 h in a horizontal orbital microplate shaker at 800±500 rpm. The beads were washed using a magnetic device to prevent loss. The biotin-antibody was dispensed in 50 ul of each well and incubated at room temperature for 1 h in a shaker at 800±500 rpm. After washing, streptavidin-PE was added at 50 ul/well and incubated at room temperature for 30 min in a shaker under the same conditions. Finally, after washing, wash buffer (100 ul/well) was added to the plate and incubated in a shaker for 2 min. The Luminex™ 200 setting were set according to the manufacturer's protocol. The data was calculated with a standard five-parameter logistic nonlinear regression analysis of the data (xPonent software 4.2, USA). The levels of cytokine/chemokine are normalized to the live cell counts (1×10^5 cells/mL) and presented as concentrations per mL (pg/mL or ng/mL).

IL-1 beta/IL-1F2 = experiment: Example 9 Luminex, LPS hPBMCs: IL-1 beta/IL-1F2; assay type: cell-based, human
Procedure: as §1, §2, §3

[1] = PBMC + LPS(5 ug/ml) + test article 0.001 uM, Mean
[2] = PBMC + LPS(5 ug/ml) + test article 0.001 uM, single replicates (1st, 2nd, 3rd)
[3] = PBMC + LPS(5 ug/ml) + test article 0.01 uM, Mean
[4] = PBMC + LPS(5 ug/ml) + test article 0.01 uM, single replicates (1st, 2nd, 3rd)
[5] = PBMC + LPS(5 ug/ml) + test article 0.1 uM, Mean
[6] = PBMC + LPS(5 ug/ml) + test article 0.1 uM, single replicates (1st, 2nd, 3rd)
[7] = PBMC + LPS(5 ug/ml) + test article 1 uM, Mean
[8] = PBMC + LPS(5 ug/ml) + test article 1 uM, single replicates (1st, 2nd, 3rd)
[9] = PBMC + LPS(5 ug/ml) + test article 10 uM, Mean
[10] = PBMC + LPS(5 ug/ml) + test article 10 uM, single replicates (1st, 2nd, 3rd)
[11] = PBMC + LPS(5 ug/ml) + test article 100 uM, Mean
[12] = PBMC + LPS(5 ug/ml) + test article 100 uM, single replicates (1st, 2nd, 3rd)
[13] = PBMC + LPS(5 ug/ml) + test article 0.001 uM, single replicates
[14] = PBMC + LPS(5 ug/ml) + test article 0.01 uM, single replicates
[15] = PBMC + LPS(5 ug/ml) + test article 0.1 uM, single replicates
[16] = PBMC + LPS(5 ug/ml) + test article 1 uM, single replicates
[17] = PBMC + LPS(5 ug/ml) + test article 10 uM, single replicates
[18] = PBMC + LPS(5 ug/ml) + test article 100 uM, single replicates

CC(C)C[C@H](NC(=O)CNC(=O)[C@H](CC(C)C)NC(=O)[C@H](CCC(N)=O)NC(=O)CNC(=O)[C@@H]1C[C@@H](O)CN1)C(=O)N[C@@H](C)C(=O)NCC(=O)N1CCC[C@H]1C(=O)N[C@@H](CCCCN)C(=O)O [YDE-011] (H-[Hyp]GQLGLAGPK-OH)
Concentration (IL-8; [1]): 26175.1 pg/mL
conc/live cell (IL-8; [1]): 4943.8 pg/10^5
Concentration (IL-8; [2]): 25949.1 pg/mL and 25243.2 pg/mL and 27333.0 pg/mL
conc/live cell (IL-8; [2]): 5766.5 pg/10^5 and 4352.3 pg/10^5 and 4712.6 pg/10^5
Concentration (IL-8; [3]): 27857.4 pg/mL
conc/live cell (IL-8; [3]): 4784.6 pg/10^5
Concentration (IL-8; [4]): 29106.4 pg/mL and 27148.3 pg/mL and 27317.6 pg/mL
conc/live cell (IL-8; [4]): 4694.6 pg/10^5 and 5323.2 pg/10^5 and 4336.1 pg/10^5
Concentration (IL-8; [5]): 25867.3 pg/mL
conc/live cell (IL-8; [5]): 4548.1 pg/10^5
Concentration (IL-8; [6]): 25672.8 pg/mL and 26225.6 pg/mL and 25703.5 pg/mL
conc/live cell (IL-8; [6]): 3889.8 pg/10^5 and 5245.1 pg/10^5 and 4509.4 pg/10^5
Concentration (IL-8; [7]): 25627.6 pg/mL
conc/live cell (IL-8; [7]): 5106.9 pg/10^5
Concentration (IL-8; [8]): 26271.7 pg/mL and 26379.3 pg/mL and 24231.7 pg/mL
conc/live cell (IL-8; [8]): 4776.7 pg/10^5 and 5495.7 pg/10^5 and 5048.3 pg/10^5
Concentration (IL-8; [9]): 25105.4 pg/mL
conc/live cell (IL-8; [9]): 4765.2 pg/10^5
Concentration (IL-8; [10]): 25626.7 pg/mL and 25335.2 pg/mL and 24354.2 pg/mL
conc/live cell (IL-8; [10]): 4745.7 pg/10^5 and 4368.1 pg/10^5 and 5181.8 pg/10^5
Concentration (IL-8; [11]): 26038.5 pg/mL
conc/live cell (IL-8; [11]): 4290.3 pg/10^5
Concentration (IL-8; [12]): 27702.6 pg/mL and 26563.8 pg/mL and 23849.1 pg/mL
conc/live cell (IL-8; [12]): 4541.4 pg/10^5 and 4354.7 pg/10^5 and 3974.8 pg/10^5
Concentration (IL-1 beta/IL-1F2; [1]): 6481.9 pg/mL
MFI (IL-1 beta/IL-1F2; [1]): 1671.0
conc/live cell (IL-1 beta/IL-1F2; [1]): 1225.5 pg/10^5
Concentration (IL-1 beta/IL-1F2; [13]): 6498.5 pg/mL and 6544.6 pg/mL and 6402.7 pg/mL
MFI (IL-1 beta/IL-1F2; [13]): 1675.5 and 1688.0 and 1649.5
conc/live cell (IL-1 beta/IL-1F2; [13]): 1444.1 pg/10^5 and 1128.4 pg/10^5 and 1103.9 pg/10^5
Concentration (IL-1 beta/IL-1F2; [3]): 6567.3 pg/mL
MFI (IL-1 beta/IL-1F2; [3]): 1694.2
conc/live cell (IL-1 beta/IL-1F2; [3]): 1128.7 pg/10^5
Concentration (IL-1 beta/IL-1F2; [14]): 6557.5 pg/mL and 6476.4 pg/mL and 6668.1 pg/mL
MFI (IL-1 beta/IL-1F2; [14]): 1691.5 and 1669.5 and 1721.5
conc/live cell (IL-1 beta/IL-1F2; [14]): 1057.7 pg/10^5 and 1269.9 pg/10^5 and 1058.4 pg/10^5
Concentration (IL-1 beta/IL-1F2; [5]): 6345.6 pg/mL
MFI (IL-1 beta/IL-1F2; [5]): 1634.0
conc/live cell (IL-1 beta/IL-1F2; [5]): 1115.2 pg/10^5
Concentration (IL-1 beta/IL-1F2; [15]): 6305.1 pg/mL and 6376.9 pg/mL and 6354.8 pg/mL
MFI (IL-1 beta/IL-1F2; [15]): 1623.0 and 1642.5 and 1636.5
conc/live cell (IL-1 beta/IL-1F2; [15]): 955.3 pg/10^5 and 1275.4 pg/10^5 and 1114.9 pg/10^5
Concentration (IL-1 beta/IL-1F2; [7]): 6587.0 pg/mL
MFI (IL-1 beta/IL-1F2; [7]): 1699.5
conc/live cell (IL-1 beta/IL-1F2; [7]): 1314.4 pg/10^5
Concentration (IL-1 beta/IL-1F2; [16]): 6553.8 pg/mL and 6454.2 pg/mL and 6753.1 pg/mL
MFI (IL-1 beta/IL-1F2; [16]): 1690.5 and 1663.5 and 1744.5
conc/live cell (IL-1 beta/IL-1F2; [16]): 1191.6 pg/10^5 and 1344.6 pg/10^5 and 1406.9 pg/10^5
Concentration (IL-1 beta/IL-1F2; [9]): 6933.0 pg/mL
MFI (IL-1 beta/IL-1F2; [9]): 1793.2
conc/live cell (IL-1 beta/IL-1F2; [9]): 1319.4 pg/10^5
Concentration (IL-1 beta/IL-1F2; [17]): 7010.0 pg/mL and 6782.6 pg/mL and 7006.3 pg/mL
MFI (IL-1 beta/IL-1F2; [17]): 1814.0 and 1752.5 and 1813.0
conc/live cell (IL-1 beta/IL-1F2; [17]): 1298.1 pg/10^5 and 1169.4 pg/10^5 and 1490.7 pg/10^5
Concentration (IL-1 beta/IL-1F2; [11]): 8675.0 pg/mL
MFI (IL-1 beta/IL-1F2; [11]): 2260.0
conc/live cell (IL-1 beta/IL-1F2; [11]): 1430.0 pg/10^5
Concentration (IL-1 beta/IL-1F2; [18]): 8497.8 pg/mL and 8918.4 pg/mL and 8608.8 pg/mL
MFI (IL-1 beta/IL-1F2; [18]): 2213.0 and 2324.5 and 2242.5
conc/live cell (IL-1 beta/IL-1F2; [18]): 1393.1 pg/10^5 and 1462.0 pg/10^5 and 1434.8 pg/10^5

Source: patent US20230146455A1, “TREATMENT OF INFLAMMATORY DISEASES WITH PEPTIDES AND PHARMACEUTICAL COMPOSITIONS” (Yuyu Pharma, Inc., priority 2020, published 2023)
